# Experiments:
# Assay type in all cases: in vivo, human
# [1] = test system: sleep disorders in the depressed patient; experiment: double-blind clinical study over 6 weeks in comparison with mirtazapine, polysomnographic recording of sleep; conditions: 6 weeks of treatment
# Description: The action specific to agomelatine on sleep disorders in the depressed patient is established in comparison with mirtazapine. This study, carried out as a double-blind over 6 weeks of treatment, has, as its principal criterion of efficacy, the polysomnographic recording of sleep. The Hamilton Scale of Depression allows the antidepressant efficacy to be documented.
# [2] = test system: patients with a characterised depressive state; experiment: double-blind clinical study over 6 weeks compared with venlafaxine (Hamilton Scale of Depression, Leeds Sleep Evaluation Questionnaire)
# Method: Another study evaluating sleep improvement was carried out in patients with a characterised depressive state as a double blind over 6 weeks compared with venlafaxine. After one week placebo, 332 patients were randomised: 165 received 25 mg/day of agomelatine and 167 received 75 mg/day of venlafaxine for 2 weeks. After 2 weeks of treatment, if clinical improvements obtained were found insufficient, the doses for some patients were doubled to 50 mg/day of agomelatine or 150 mg/day of venlafaxine for the following weeks.
# [3] = test system: patients with a characterised depressive state; experiment: pilot study of sleep polysomnographic parameters in 15 patients; conditions: agomelatine 25 mg; polysomnography
# Method: Lastly, effects of agomelatine on the sleep polysomnographic parameters were evaluated in a pilot study carried out in 15 patients with a characterised depressive state. […] Furthermore, agomelatine increase the total duration of sleep, reduce the number of nocturnal wakenings, and as a consequence improve sleep efficacy.
# [4] = versus venlafaxine, p less than or equal to 0.001
compound,measurement,setting,value
"COc1ccc2cccc(CCNC(C)=O)c2c1 [agomelatine, N-[2-(7-methoxy-1-naphthyl)ethyl]acetamide]",efficacy in the treatment of sleep disorders in the depressed patient (polysomnographic recording of sleep),[1],especially effective
same,antidepressant efficacy (Hamilton Scale of Depression),"[2]; agomelatine 25 mg/day (up to 50 mg/day) versus venlafaxine 75 mg/day (up to 150 mg/day), 6 weeks",comparable efficacy of agomelatine versus venlafaxine
same,"""sensation of well-being""",[2]; [4],equally significant improvement
same,"""sleepiness during the day""",[2]; [4],equally significant improvement
same,"LSEQ item ""quality of sleep"" (QOS)","[2]; versus venlafaxine, p=0.015",appreciably greater efficacy
same,"LSEQ item ""ease of getting to sleep"" (GTS)","[2]; versus venlafaxine, significant difference from the first week (p=0.007), continuing during the 6 weeks",more important and faster to appear than for venlafaxine
same,REM (rapid eye movements) sleep,[3],without alteration
same,absolute and relative durations of cycles 3 and 4 of the recording of the electroencephalographic activity,[3],significantly improved
same,number of nocturnal wakenings,[3],reduce
same,onset of the beneficial effects on sleep,[3],from the first week of treatment
same,sleep efficacy,[3],improve
same,sleep physiological structure,[3],Restoration of the sleep physiological structure was observed
same,total duration of sleep,[3],increase

# Source: patent US20070060655A1, “Use of agomelatine in obtaining medicaments intended for the treatment of sleep disorders in the depressed patient” (LES LABORATOIRES SERVIER, priority 2005, published 2007)
